One assay deals with Bacillus subtilis 168. Description: Test-tube based antimicrobial assay of purified AMP-SELP fusions. Format: cell-based. As to conditions: 1.25 mg/ml in water, equal volume of 1:500 diluted culture, 37° C., after 4 hours. The method, then: (§1) Culture supernatant samples from post-induction time-points from a fermentation of Cecropin A-Melettin (CAM) fused to the N-terminus of SELP47K were tested for growth inhibition of E. coli and B. subtilis. […] Purified CAM-SELP47K (SEQ. ID. NO.32) and MBI-SELP47K (SEQ. ID. NO. 33) biomaterials were similarly tested for their antimicrobial activity. Lyophilized material was dissolved in water at 1.25 mg/ml and used in a test-tube based assay performed as follows: Bacillus subtilis 168 and Escherichia coli MG1655 were each grown from single colonies in 5 ml volumes of LB in test tubes, 37° C., 250 rpm, 16 hrs. Cultures were diluted 1:500 in Terrific broth. Equal volumes of diluted culture and purified AMP-SELP fusions described above were combined in sterile glass test-tubes (1 ml total volume in 5 ml tubes), in duplicate, and incubated at 37° C., 250 rpm. Purified SELP47K was used as a negative control.

A further assay deals with Escherichia coli MG1655. The description is as above. It is filed as cell-based. To be noted: 1.25 mg/ml in water, equal volume of 1:500 diluted culture, 37° C., after 4 hours. The method, then:
as §1

For “SELP47K: genetically engineered silk-elastin polymer, head-[(GAGAGS)2(GVGVP)3GKGVP(GVGP)4(GAGAGS)2]13-tail (SEQ ID NO. 19), 886 amino acids”, the growth in tubes entry in the assay with Bacillus subtilis 168 and in the assay on Escherichia coli MG1655 was “growth was clearly visible” in each case.

(Values after US7691806B2, “Repeat sequence protein polymer active agent congjugates, methods and uses” (priority 2003, dated 2010).)
